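Assay format: 96-well plates, 48-hour exposure. Here, GI50 denotes the concentration required for 50% inhibition of growth. Definition used: TGI = concentration required for complete inhibition of growth.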
What was measured:
Assay in all cases: NCI tumour cell line growth inhibition, 48 h
OVCAR-5 ovarian = tested on: OVCAR-5 ovarian
PC-3 prostate = tested on: PC-3 prostate
SK-MEL-2 melanoma = tested on: SK-MEL-2 melanoma
M14 melanoma = tested on: M14 melanoma
RXF 393 renal = tested on: RXF 393 renal
MDA-MB-435 = tested on: MDA-MB-435
786-0 renal = tested on: 786-0 renal
SNB-75 CNS = tested on: SNB-75 CNS
KM12 colon = tested on: KM12 colon
CCRF-CEM leukemia = tested on: CCRF-CEM leukemia
UO-31 renal = tested on: UO-31 renal
SW-620 colon = tested on: SW-620 colon
RPMI-8226 leukemia = tested on: RPMI-8226 leukemia
NCI-H522 lung = tested on: NCI-H522 lung
SF-539 CNS = tested on: SF-539 CNS
EKVX NSCLC = tested on: EKVX NSCLC
MOLT-4 leukemia = tested on: MOLT-4 leukemia
NCI-H460 lung = tested on: NCI-H460 lung
DU-145 prostate = tested on: DU-145 prostate
HCT-15 colon = tested on: HCT-15 colon
HCC-2998 colon = tested on: HCC-2998 colon
HOP-92 NSCLC = tested on: HOP-92 NSCLC
OVCAR-8 ovarian = tested on: OVCAR-8 ovarian
BT-549 breast = tested on: BT-549 breast
MCF7 breast = tested on: MCF7 breast
SK-MEL-5 melanoma = tested on: SK-MEL-5 melanoma
NCI-H226 lung = tested on: NCI-H226 lung
COLO 205 colon = tested on: COLO 205 colon
K-562 leukemia = tested on: K-562 leukemia
SR leukemia = tested on: SR leukemia
HOP-62 NSCLC = tested on: HOP-62 NSCLC
MALME-3M melanoma = tested on: MALME-3M melanoma
SF-268 CNS = tested on: SF-268 CNS
NCI/ADR-RES ovarian = tested on: NCI/ADR-RES ovarian
SF-295 CNS = tested on: SF-295 CNS
U251 CNS = tested on: U251 CNS
UACC-257 melanoma = tested on: UACC-257 melanoma
T-47D breast = tested on: T-47D breast
SNB-19 CNS = tested on: SNB-19 CNS
SK-MEL-28 melanoma = tested on: SK-MEL-28 melanoma
LOX IMVI melanoma = tested on: LOX IMVI melanoma
ACHN renal = tested on: ACHN renal
SN12C renal = tested on: SN12C renal
UACC-62 melanoma = tested on: UACC-62 melanoma
TK-10 renal = tested on: TK-10 renal
NCI-H23 lung = tested on: NCI-H23 lung
HCT-116 colon = tested on: HCT-116 colon
HT29 colon = tested on: HT29 colon
CAKI-1 renal = tested on: CAKI-1 renal
OVCAR-4 ovarian = tested on: OVCAR-4 ovarian
A498 renal = tested on: A498 renal
IGROV1 ovarian = tested on: IGROV1 ovarian
SK-OV-3 ovarian = tested on: SK-OV-3 ovarian
HS 578T breast = tested on: HS 578T breast
MDA-MB-231 breast = tested on: MDA-MB-231 breast
OVCAR-3 ovarian = tested on: OVCAR-3 ovarian
A549 NSCLC = tested on: A549 NSCLC
HL-60(TB) leukemia = tested on: HL-60(TB) leukemia

## C[C@@H](Nc1c(C#N)cnc2ccc(-c3cnc(Cl)c(NS(C)(=O)=O)c3)cc12)c1ccccc1
OVCAR-5 ovarian
  GI50: 544 nM
  TGI: 19.2 µM
PC-3 prostate
  GI50: 259 nM
  TGI: 7.97 µM
SK-MEL-2 melanoma
  GI50: 249 nM
  TGI: 1590 nM
M14 melanoma
  GI50: 442 nM
  TGI: 12.5 µM
RXF 393 renal
  GI50: 158 nM
  TGI: 877 nM
MDA-MB-435
  GI50: 495 nM
  TGI: 11.4 µM
786-0 renal
  GI50: 365 nM
  TGI: > 100 µM
SNB-75 CNS
  GI50: < 35.3 nM
  TGI: 701 nM
KM12 colon
  GI50: 493 nM
  TGI: 11.3 µM
CCRF-CEM leukemia
  GI50: 178 nM
  TGI: > 21.4 µM
UO-31 renal
  GI50: 256 nM
  TGI: 9.3 µM
SW-620 colon
  GI50: 343 nM
  TGI: 12.1 µM
RPMI-8226 leukemia
  GI50: 121 nM
  TGI: 582 nM
NCI-H522 lung
  GI50: 440 nM
  TGI: 11.5 µM
SF-539 CNS
  GI50: 372 nM
  TGI: 4.08 µM
EKVX NSCLC
  GI50: 431 nM
  TGI: 5.35 µM
MOLT-4 leukemia
  GI50: 144 nM
  TGI: 1810 nM
NCI-H460 lung
  GI50: 357 nM
  TGI: 12 µM
DU-145 prostate
  GI50: 380 nM
  TGI: 11.7 µM
HCT-15 colon
  GI50: 303 nM
  TGI: 11.5 µM
HCC-2998 colon
  GI50: 515 nM
  TGI: 8.73 µM
HOP-92 NSCLC
  GI50: 51.5 nM
  TGI: 636 nM
OVCAR-8 ovarian
  GI50: 559 nM
  TGI: > 36.6 µM
BT-549 breast
  GI50: 146 nM
  TGI: 2560 nM
MCF7 breast
  GI50: 41.7 nM
  TGI: 4.08 µM
SK-MEL-5 melanoma
  GI50: 138 nM
  TGI: 283 nM
NCI-H226 lung
  GI50: 676 nM
  TGI: 18.2 µM
COLO 205 colon
  GI50: 340 nM
  TGI: 2240 nM
K-562 leukemia
  GI50: 264 nM
  TGI: > 100 µM
SR leukemia
  GI50: 206 nM
  TGI: 6.19 µM
HOP-62 NSCLC
  GI50: 326 nM
  TGI: 5.12 µM
MALME-3M melanoma
  GI50: 166 nM
  TGI: 1820 nM
SF-268 CNS
  GI50: 275 nM
  TGI: 7.33 µM
NCI/ADR-RES ovarian
  GI50: 1610 nM
  TGI: 32.1 µM
SF-295 CNS
  GI50: 252 nM
  TGI: 2290 nM
U251 CNS
  GI50: 335 nM
  TGI: 13.4 µM
UACC-257 melanoma
  GI50: 495 nM
  TGI: 7.05 µM
T-47D breast
  GI50: 112 nM
  TGI: 3.88 µM
SNB-19 CNS
  GI50: 500 nM
  TGI: 12.1 µM
SK-MEL-28 melanoma
  GI50: 346 nM
  TGI: 11.2 µM
LOX IMVI melanoma
  GI50: 275 nM
  TGI: 1680 nM
ACHN renal
  GI50: 540 nM
  TGI: 44.1 µM
SN12C renal
  GI50: 322 nM
  TGI: > 100 µM
UACC-62 melanoma
  GI50: 206 nM
  TGI: 2030 nM
TK-10 renal
  GI50: 184 nM
  TGI: 1880 nM
NCI-H23 lung
  GI50: 233 nM
  TGI: 5.84 µM
HCT-116 colon
  GI50: 124 nM
  TGI: 4.83 µM
HT29 colon
  GI50: 351 nM
  TGI: 12.9 µM
CAKI-1 renal
  GI50: 241 nM
  TGI: 3.98 µM
OVCAR-4 ovarian
  GI50: 450 nM
  TGI: 15.4 µM
A498 renal
  GI50: 207 nM
  TGI: 778 nM
IGROV1 ovarian
  GI50: 181 nM
  TGI: 1010 nM
SK-OV-3 ovarian
  GI50: 431 nM
  TGI: 3.18 µM
HS 578T breast
  GI50: 181 nM
  TGI: 1290 nM
MDA-MB-231 breast
  GI50: 594 nM
  TGI: 16.6 µM
OVCAR-3 ovarian
  GI50: 260 nM
  TGI: 3.82 µM
A549 NSCLC
  GI50: 492 nM
  TGI: 6.47 µM
HL-60(TB) leukemia
  GI50: 222 nM
  TGI: 6.48 µM

Reference: PubChem BioAssay (NCI)
